Consider 5 molecules from US8492362B1, “5-(E)-Bromovinyl uracil analogues and related pyrimidine nucleosides as anti-varicella zoster virus agents and methods of use” (priority 2011, dated 2013).

Each structure is given as a SMILES string. pEC50: −log10 of the molar value. Where two headings read alike, the source gives them in different places.

For data set [1] the following is noted: herpes zoster patients, 125 mg/day; cited from earlier work.
The conditions of data set [2]: 3 mg/mL in drinking water.
The subject of data set [3] is VZV. To be noted: Oliver et al., 2008; cited from earlier work.
The subject of data set [4] is VZV-BAC-Luc. It is filed as in vivo, Varicella-zoster virus. To be noted: 3 mg/mL in drinking water.
For data set [5], the system named is human foreskin fibroblasts (HFFs). Kind of data set: Neutral red dye uptake cytotoxicity assay in HFFs. It is filed as cell-based. Conditions: 35 nM. How it is done:
The neutral red (NR) cytotoxicity assay was performed as described previously (Rowe et al.) and is based on the method of (Babich et al., 2002).
To determine the toxicity of L-BHDU in culture, a neutral red dye uptake assay was performed. The amount of dye absorbed is directly proportional to cell number and membrane integrity (Repetto et al., 2008). Primary human foreskin fibroblasts (HFFs) were treated with either 35 nM staurosporine to induce apoptosis, DMSO diluent alone, or 0.1 to 200 μM L-BHDU, refreshed daily. The uptake of neutral red dye was evaluated at 0, 24, 48, and 72 h post treatment. Absorbance values from 6 replicates at each dose were averaged and plotted against treatment time (FIG. 1A). […] In the cultures treated with 200 μM L-BHDU or DMSO at an equivalent diluent concentration, cell viability declined between 48-72 h. […] This substantiates previous reports that L-BHDU caused no cell growth arrest up to 200 μM in HEL 299 cells (human embryonic lung) (Li et al., 2000).

Data set [6] concerns VZV-BAC-Luc. Conditions: 36 mg/kg/day subcutaneously from osmotic pumps; cited from earlier work.
Data set [7] has as its system VZV-BAC-Luc. The format is cell-based, Varicella-zoster virus. To be noted: HFF at 48 hpi, read-out: EC50 in HFF, prodrug study.
The test system of data set [8] is VZV-BAC-Luc. Put plainly: VZV-BAC-Luc dose-response in human skin organ culture (SOC). Conditions: read-out: EC50 in skin organ culture (SOC), skin explants, Day 6 (6 dpi).

The pEC50 is −log10 of the EC50, conventionally taken in molar units.

As to `O=c1[nH]c(=O)n([C@H]2C[C@H](O)[C@@H](CO)O2)cc1/C=C/Br` [brivudin, (E)-5-(2-bromovinyl)-2′-deoxyuridine], the “Cmax (plasma)” value in data set [1] was 1700 ng/mL.
For `CC(C)[C@H](N)C(=O)OCCOCn1cnc2c(=O)[nH]c(N)nc21` [valaciclovir, reference compound], the “loss of body weight” value in data set [2] is recorded as over 20%. Also, the “effect on VZV replication in SCID-Hu mice” value in data set [3] is given as “little to no effect”. The “antiviral effect in SCID-Hu mice” value in data set [4] is recorded as “no antiviral effect”; in data set [4] (listed as VACV) it was “not effective”. The “average VZV growth rate” value in data set [4] (n=5) is 0.62±0.05 log10 photons/s/day.
On to `CN[C@@H]1C[C@H]2O[C@@](C)([C@@H]1OC)n1c3ccccc3c3c4c(c5c6ccccc6n2c5c31)C(=O)NC4` [staurosporine, reference compound], for which, in data set [5], the “cell viability, positive control for cell death” value was “no viable cells were detected”.
With `O=C(O)CP(=O)(O)O` [phosphonoacetic acid (PAA), phosphonoacetic acid], the “effect on VZV growth in SCID-Hu model (Rowe et al.)” value in data set [6] is on record as “significantly reduced VZV growth”.
Consider `CC(C)C(N)C(=O)OCC1OCC(n2cc(C=CBr)c(=O)[nH]c2=O)O1` (stereo not shown) [valyl derivative], for which the pEC50 in data set [7] is 7.42; in data set [8], 7.30.
